What was measured:
microbes [1] = assay: Amount of Alexidine required to disinfect the solutions; type: cell-based; details: in Formulae 1-4
Method: (§1) For the purposes of this patent application a disinfecting amount is an amount of an antimicrobial agent that passes the Stand Alone Disinfecting Efficacy Test by the Food and Drug Administration (510k) of the United States of America in a minimum of three out of four test samples in a test solution that is diluted with 0.9 wt. % saline solution in a 1:1 ratio of test solution to saline solution.
(§2) The FDA (510 (k)) Guidance Document for contact lens products defines procedures that measure the extend of viability loss of representative microorganisms at established time intervals to determine the extend of viability loss. FDA (510 (k)) Guidance Documents recommended test organisms for both disinfecting stand-alone and preservative efficacy testing are composed of three bacteria (Pseudomonas aeruginosa ATCC 9027, Stapylococcus aureus ATCC 6538, and Serratia marcescens ATCC 13880) and two fungi (Candida albicans ATCC 10231, and Fusarium solani ATCC 36031). The performance requirement biocidal stand alone testing calls for 3 log reduction for bacterial cells and 1 log reduction for each fungi. At day 28, after the rechallenge on day 14, the performance requirement for preservative efficacy testing calls for reduction of 3.0 logs per bacteria and ±0.5 for fungi.
(§3) With Alexidine, it has been discovered that approximately 1 ppm is required to disinfect each of the solutions above. […]

microbes [2] = assay: Disinfection of a contact lens removed from the eye and treated by a disinfecting/cleaning regimen; type: cell-based; details: Alexidine at 4.5 ppm; lens removed from the eye and treated with solution
Method: as §1, §2, §3

`CCCCC(CC)CNC(=N)NC(=N)NCCCCCCNC(=N)NC(=N)NCC(CC)CCCC` (centres unmarked) [Alexidine, 1,1′-hexamethylenebis[5-(2-ethylhexyl)biguanide]] was tested, and the “amount of Alexidine required to disinfect each of the solutions” value (microbes [1]) was “approximately 1 ppm” and the “antimicrobial activity to disinfect a contact lens” value (microbes [2]) was “sufficient antimicrobial activity to disinfect a contact lens”.

— patent US20070142321A1, “METHOD FOR PREVENTING GROWTH OF BACTERIA ON CONTACT LENSES WITH EYE DROPS” (priority 2005, published 2007)
